Reference: patent US20050244335A1, “Methods and compositions related to increasing antitumor activity of chemotherapeutic agents” (priority 2004, published 2005)

Legend:
[1] = test system: human breast cancer MCF-7 xenografts; assay: In vivo chemotherapy, breast cancer MCF-7 xenograft model in nude mice; settings: MCF-7 model; agent alone
Text: Cell Culture. […] All media contained 1% penicillin-streptomycin.
Data and Statistical Analysis.

human cancer xenografts = assay: Six murine-human cancer xenograft models overall: efficacy and toxicity; settings: nude mice; carboplatin 120 mg/kg, gemcitabine 160 mg/kg i.p.
Procedure: Human cancer xenograft models were established using the methods reported previously (26-29). When confluence reached 80%, cultured LS174T, MCF-7, MDA-MB-468, U87-MG, A549 and H1299 cells were harvested from the monolayer cultures, washed with the above indicated serum-free medium and resuspended in the same medium with Matrigel® basement membrane matrix at a 3:1 ratio, and then injected subcutaneously (s.c.) (5×10^6 cells, total volume 0.2 mL) into the left inguinal area of the nude mice. The animals were monitored for activity, physical condition, determination of body weight, and measurement of tumor growth. Tumor growth was determined by caliper measurement in two perpendicular diameters of the implant every other day. Tumor weight (in g) was calculated by the formula, 1/2a×b^2 where “a” is the long diameter and “b” is the short diameter (in cm).
Nude mice bearing human cancer xenografts were randomly divided into various treatment and control groups (5 mice/group). In treatment groups, animals were pre-treated with DEX subcutaneously (s.c., 0.1 mg/day for 5 days, Day −4-0) or saline (as controls). Carboplatin was administered intraperitoneally (i.p.) at a single dose of 120 mg/kg (360 mg/m^2) on day 0.
The antitumor activity (tumor mass) and peripheral blood counts were expressed as mean and standard deviations and the significance of differences were analyzed by ANOVA.
When mean tumor mass reached 44-68 mg, animals were treated with s.c. DEX at a dose of 0.1 mg/day for 5 days, followed by chemotherapy.

[2] = Pharmacokinetics and tissue distribution of carboplatin in CD-1 mice; assay type: in vivo; settings: carboplatin 60 mg/kg iv
Procedure: Pharmacokinetic studies were carried out using a protocol similar to that previously described (Wang, 1999) using metabolism cages. Male CD-1 mice were pre-treated with DEX (s.c., 0.1 mg/day/mouse for 5 days) or saline (as controls), and, at 1 hr after the fifth dose of DEX, were given a single intravenously (i.v.) bolus administration of carboplatin (60 mg/kg) via a tail vein. At various times (5, 15, and 30 min, 1, 2, 4, 8, and 24 hr after drug dosing; 3 animals for each time point)), blood samples were collected in heparinized tubes and tissue samples removed. Plasma was separated by centrifugation at 20,000 g for 5 min. Tissues including liver, kidneys and spleen were immediately blotted on Whatman No. 1 filter paper, trimmed of extraneous fat or connective tissue, weighed, and homogenized in 0.9% NaCl physiological saline (5 mL per g of wet tissue weight). The resultant homogenates were stored at −70° C. until further analysis. Bone marrow cells were harvested by flushing the femurs with sterile physiological saline as reported previously (Zhang, 1993). The resultant bone marrow cell suspension was weighed and lysed by sonicating 5 times for periods of 10 sec. Following centrifugation at 20,000 g for 30 min, the supernatant was removed and stored at −70° C. until further analysis.
[…] in biological samples was analyzed by an analytical procedure involving micro-filtration and reversed-phase HPLC (Bullen, 1992). 200 μL of plasma or tissue homogenates or bone marrow suspension was added to the reservoir of a Centrifree™ micropartition system. The latter was capped and centrifuged at 2,000 g for 5 min. All filtrates were transferred into a new micro centrifuge tube and 6 μL of the filtrates was injected onto the HPLC column. The HPLC system consisted of a Hewlett Packard 1050 ChemStation with a UV detector (Agilent 1050 series). Determination of Carboplatin was achieved using a LiChrosorb™ diol (10 μm, 250×4.6 mm) analytical column with a LiChroCART 100 RP-18 guard column. The mobile phase for plasma was composed of 98:2 acetonitrile: H2O (vol/vol) and 89:11 acetonitrile: 0.015% H3PO4 (vol/vol) for urine and tissue samples. The flow rates were 2 mL/min (for plasma) and 1.1 mL/min (for urine and tissue samples). The column elute was monitored by UV at 229 nm. Quantitation of plasma or tissue carboplatin was carried out by using an external standard curve (0-4,000.0 μg/mL) that was freshly prepared daily. Linear regression and correlation analysis were carried out to establish the standard peak-area/concentration curves for carboplatin.
(§1) The significance of the differences among treated groups and controls were analyzed by ANOVA.

CD-1 mice = assay type: in vivo; settings: CD-1 mice
Procedure: Male CD-1 mice, randomly divided into multiple treatment and control groups (10 mice/group), were given DEX by subcutaneous (s.c.) injection at doses of 0.01, 0.05, 0.1, 0.3 mg/mouse/day or saline (as controls) for 5 days prior to (day −4 to 0) or after (day 0 to 4) a single intraperitoneal (i.p.) injection of carboplatin (600 mg/m^2 or 200 mg/kg) on day 0. Animals were monitored daily for activity, physical condition, body weight and 14-day survival rates.
as §1

Q: Which results are given for N.N.O=C([O-])C1(C(=O)[O-])CCC1.[Pt+2] [carboplatin]?
A: effect on tumor growth [1]: limited effects on tumor growth; death (human cancer xenografts): no death occurred; tolerability by inspection and animal weights (human cancer xenografts): tolerated well; AUC of carboplatin in spleen, DEX pretreated relative to control mice [2]: approximately 16.5%; carboplatin AUC decrease in bone marrow, DEX pretreated vs control mice [2]: 57.4%; decrease of carboplatin uptake in liver by DEX pretreatment [2]: 40%; AUC ([2]; bone marrow, DEX (+)): 517160 ng·h/mL; CL ([2]; bone marrow, DEX (+)): 0.12 mL/g/h; Cmax ([2]; bone marrow, DEX (+)): 20610 ng/mL; T1/2 ([2]; bone marrow, DEX (+)): 922.8 min; Vss ([2]; bone marrow, DEX (+)): 2.57 mL/g; AUC ([2]; bone marrow, DEX (−)): 901600 ng·h/mL; CL ([2]; bone marrow, DEX (−)): 0.07 mL/g/h; Cmax ([2]; bone marrow, DEX (−)): 20140 ng/mL; T1/2 ([2]; bone marrow, DEX (−)): 1708 min; Vss ([2]; bone marrow, DEX (−)): 2.75 mL/g; AUC ([2]; liver, DEX (+)): 25020 ng·h/mL; CL ([2]; liver, DEX (+)): 2.40 mL/g/h; Cmax ([2]; liver, DEX (+)): 16550 ng/mL; T1/2 ([2]; liver, DEX (+)): 23.4 min; Vss ([2]; liver, DEX (+)): 1.35 mL/g; AUC ([2]; liver, DEX (−)): 38710 ng·h/mL; CL ([2]; liver, DEX (−)): 1.55 mL/g/h; Cmax ([2]; liver, DEX (−)): 25440 ng/mL; T1/2 ([2]; liver, DEX (−)): 23.4 min; Vss ([2]; liver, DEX (−)): 0.87 mL/g; AUC ([2]; plasma, DEX (+)): 42690 ng·h/mL; CL ([2]; plasma, DEX (+)): 1.41 mL/g/h; Cmax ([2]; plasma, DEX (+)): 227580 ng/mL; T1/2 ([2]; plasma, DEX (+)): 7.8 min; Vss ([2]; plasma, DEX (+)): 0.26 mL/g; AUC ([2]; plasma, DEX (−)): 44180 ng·h/mL; CL ([2]; plasma, DEX (−)): 1.36 mL/g/h; Cmax ([2]; plasma, DEX (−)): 352620 ng/mL; T1/2 ([2]; plasma, DEX (−)): 5.4 min; Vss ([2]; plasma, DEX (−)): 0.17 mL/g; AUC ([2]; spleen, DEX (+)): 56720 ng·h/mL; CL ([2]; spleen, DEX (+)): 1.06 mL/g/h; Cmax ([2]; spleen, DEX (+)): 17790 ng/mL; T1/2 ([2]; spleen, DEX (+)): 49.2 min; Vss ([2]; spleen, DEX (+)): 1.25 mL/g; AUC ([2]; spleen, DEX (−)): 344110 ng·h/mL; CL ([2]; spleen, DEX (−)): 0.17 mL/g/h; Cmax ([2]; spleen, DEX (−)): 118730 ng/mL; T1/2 ([2]; spleen, DEX (−)): 45 min; Vss ([2]; spleen, DEX (−)): 0.19 mL/g; survival rate (CD-1 mice; carboplatin 600 mg/m^2 (200 mg/kg) i.p. alone (carboplatin controls), 14-day): 10%; mortality rate (CD-1 mice; single i.p. dose of carboplatin alone 600 mg/m^2 (200 mg/kg)): 90%
